Measured values reported in patent US9821010B2, “Methods for expansion or depletion of T-regulatory cells” (The General Hospital Corporation, priority 2013, dated 2017).
Entries after “also recorded” stand apart in the source; their conditions may differ.

Assays:
[1] = system: CD25+FOXP3− cell population; experiment: Overnight incubation of CD4+ cells with IL-2: CD25+FOXP3- cell population; assay type: cell-based, human; conditions: overnight incubation with IL-2
Description: Despite high expression of TNFR2 on Tregs, some TNFR2 expression is also observable on CD4+ T cells that are not true Tregs because they only express intermediate levels of CD25, i.e., CD4^+CD25^mid cells. I therefore studied the impact of overnight incubation on CD25^mid cell subpopulations of IL-2 alone, IL-2 and TNF-α, or IL-2 and TNFR2 agonist, or IL-2 and TNFR2 antagonist. […] However, I observed suppression with IL-2 and TNFR2 antagonist relative to the other three groups.

expanded CD4+CD25+ cells = experiment: Intracellular cytokine production of expanded Tregs after PMA and ionomycin; assay type: cell-based, human; conditions: PMA and ionomycin 24 hours; Tregs expanded with rapamycin
Description: Expanded CD4^+CD25^+ cells were stimulated with phorbol myristate acetate (PMA) (2 ng/ml) and ionomycin (500 ng/ml) (Sigma) for 24 hours. Monensin (GolgiStop, BD Biosciences) was added for the last 4 hours of incubation. Cells were fixed and permeabilized using Human FOXP3 Buffer Set, followed by staining with fluorochrome-conjugated IFNγ and IL-10 mAbs.
One of the reasons for these Tregs showing high suppression capacity over CD8+ T cells may be due to Tregs lacking the ability to produce IFNγ.

[2] = system: freshly isolated human CD4+ cells; experiment: FOXP3 induction by TNF-α in freshly isolated human CD4+ cells; assay type: cell-based
Description: I cultured freshly isolated human CD4+ cells from 14 human subjects only with TNF-α for 16 hours (FIG. 1B). […] IL-2 is important for Tregs induction and maintenance in mice. […] Thus, the data in FIGS. 1B and 1C confirm that TNF-α […] in vitro.

[3] = co-incubation with IL-2, compared to IL-2 alone

TNF-α
proportion of CD25hiFOXP3− cells [1]: rise in the proportion of CD25^hiFOXP3^− cells
proportion of CD25hiFOXP3− cells ([1]; listed as TNF): Significant percentage increases
percentage of IFNγ+ cells / IFNγ production (expanded CD4+CD25+ cells): lowest percentages of IFNγ+ cells
induction of Tregs (inducible FOXP3) ([2]; TNF-α alone, 16 hours, 14 subjects): no induction of Tregs; also recorded: does not induce FOXP3
induction of Tregs (inducible FOXP3) [2, 3]: significant increase in Tregs over IL-2 alone; also recorded: does induce it to higher levels
percentage of CD4+CD25hi FOXP3 cells (flow cytometry) [2, 3]: increased the percentage of CD4+CD25^hi FOXP3 cells; also recorded: greater intracellular induction of FOXP3
